Patent US8951986B2, “Salts of HIV inhibitor compounds” (Gilead Sciences, Inc., priority 2008, dated 2015)

How the values were obtained:
HIV-1 BaL = assay: Anti-HIV-1 activity in activated PBMC, p24 ELISA; format: cell-based; conditions: activated PBMC infected with HIV-1 BaL, 5 days, mean ± SD
Description: Activated PBMC were infected with HIV-1 BaL for 3 hours, washed, seeded into 96-well plates (250,000 cells/well) and incubated with serial dilutions of tested compounds for 5 days, at which point cell supernatants were collected and virus production was determined using commercial HIV-1 p24 ELISA (Beckman Coulter, Miami, Fla.).

HIV-1 IIIB = assay: Anti-HIV-1 activity in MT-2 cells, virus-induced cytopathic effect (CellTiter-Glo); format: cell-based; conditions: MT-2 cells infected with HIV-1 IIIB, 5-day incubation; mean ± SD
Description: MT-2 cells were maintained in RPMI-1640 medium supplemented with antibiotics and 10% fetal bovine serum (FBS). MT-2 cells were infected with HIV-1 IIIB at a multiplicity of infection (moi) of 0.01 and added to 96-well plates with serial dilutions of tested compounds at a density of 20,000 cells/well. […] Activity against NRTI-resistant mutants was determined in parallel with wild-type control virus and fold change in EC50 was calculated.

## Nc1ncnc2c1ncn2[C@@H]1O[C@H](OCP(=O)(O)O)C=C1F [Parent Compound]
HIV-1 BaL
  EC50: 8.5 ± 7.7 µM
HIV-1 IIIB
  EC50: 10.6 ± 2.4 µM
